The values that follow come from patent US20230226013A1, “COMPOSITION AND METHOD FOR TREATING CANCER” (Carmel-Haifa University Economic Corp Ltd., priority 2019, published 2023).

Data set [1] concerns HPAF-II and PL45 human pancreatic cancer cells. Put plainly: XTT assay, cell viability / proliferation. The data set is classed as cell-based. How it is done: Reference is now made to FIG. 4, presenting the effect of Striatal C on the viability of HPAF-II and PL45 human pancreatic cancer cells, in comparison to the effect of the Cyathus striatus CBS 126585 extract on the same cells, wherein the measurements of the effects are based on an XTT assay. Particularly, cell proliferation was determined using the sodium 3′-[1-(phenylaminocarbonyl)-3,4-tetrazolium]-bis (4-methoxy-6-nitro) benzene sulfonic acid hydrate (XTT) assay, according to the manufacturer’s instructions (Biological Industries, Beit Haemek, Israel).

Data set [2] has the same test system. Put plainly: Annexin-V/PI assay, induction of apoptosis. It is filed as cell-based. The settings on record: low doses, 4 hours of exposure. The protocol: Particularly, Cell death was analyzed by staining the cells with FITC-labeled Annexin V and propedium iodide (PI) using an Annexin V-FITC apoptosis detection kit, (MBL, Nagoya, Japan), according to the manufacturer’s instructions.

Data set [3] can be described thus: Stability of the isolated compound (solid state; in dichloromethane solution). It is filed as physicochemical. Conditions: solid state conditions at -20° C. The protocol: 2. The isolated compound was stable and pure (purity > 95% by HPLC) at solid state conditions at -20° C.
4. During NMR experiments observed partially isomerization of isolated compound. The dissolving in dichloromethane at 20 mg/ml concentration leads to steady state between major and minor isomers with ratio ~75:25. HPLC analyses of NMR solution show only one peak of isolated compound.

`CC(C)C1=C2C3=CC=C(C=O)[C@@H]4C(O[C@@H]5OC[C@@H](O)C(=O)[C@@]54O)[C@]3(C)CC[C@@]2(C)CC1` (stereo partly shown) [Striatal C] yielded a most effective concentration in data set [1] (control 0 µg/ml) of 10 µg/mL. Also, in data set [1] (low doses, 4 hours of exposure), the “effect on cell viability” value is listed as “profound decrease in cell viability”. In addition, the induction of apoptosis result in data set [2] is recorded as “induction of apoptosis”.

For the compound `CC(C)C1=C2[C@H]3[C@@H](O)C=C(C=O)[C@@H]4C(O[C@@H]5OC[C@@H](O)C(=O)[C@@]54O)[C@]3(C)CC[C@@]2(C)CC1` (stereo partly shown) [isolated compound], the “stability at solid state” value in data set [3] is “stable”.
